Values of other authors, collected in patent publication US9555113B2, “Compositions with a rheological modifier to reduce dissolution variability” (Durect Corporation, priority 2013, dated 2017).
Where two headings read alike, the source gives them in different places.

Sucrose Acetate Isobutyrate [SAIB]
viscosity (pure SAIB at 80° C.): approximately 600 cP
viscosity (pure SAIB at ambient temperature (RT)): approximately 2,000,000 cP
